Results reported in the METLIN SMRT retention time set (Domingo-Almenara et al. 2019).

Experiment: gradient 5% acetonitrile 3 min, to 50% in 2 min, to 85% in 15 min, held 3 min, 100 µL/min
Details: column: Zorbax Extend-C18 2.1 x 50 mm; eluents: water / acetonitrile, 0.1% formic acid
Outline: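 The mobile phases were water and acetonitrile, each with 0.1% formic acid, pumped at 100 μL/min through a Zorbax Extend-C18 column (2.1 × 50 mm, 1.8 μm). Pure standards were injected as mixtures of ~100 molecules and detected by a quadrupole time-of-flight mass spectrometer in positive and negative ionization mode. Retention time came from computationally picked adduct peaks, each inspected by hand.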

Row | Structure (SMILES) | RP-LC retention time [s]
1 | COc1ccc(C2Cn3nnc(-c4nc(-c5ccsc5)no4)c3CO2)cc1 (stereo not given) | 1070
2 | O=C(c1ccc(Cl)cc1)N1CCCC(c2nnc(-c3ccccc3)o2)C1 (stereo not given) | 874
3 | Cc1cc(C)n(-c2ccnc(NCc3ccc(Cl)cc3)n2)n1 | 928
4 | COc1ccc(-c2nc3ncc4c(=O)n(CCc5c[nH]c6ccccc56)ccc4n3n2)cc1 | 940
5 | Cc1nnc(NC(=O)CSc2nnc(C3COc4ccccc4O3)o2)s1 (stereo not given) | 699
6 | CCc1cccc(NC(=O)C2CCN(S(=O)(=O)c3cc(-c4noc(C5CC5)n4)cs3)CC2)c1 | 1110
7 | COc1ccc(-c2ncccc2CNS(=O)(=O)Cc2ccccc2F)cc1 | 660
8 | Cc1ccc(Cl)cc1NC(=O)N1CCCC(Cn2cnc3cccnc32)C1 (stereo not given) | 709
9 | O=C(CN1C(=O)C(C(=O)N2CCCC2)Sc2ccccc21)N1CCN(c2ccccc2F)CC1 (stereo not given) | 859
10 | COc1ccc(CCn2nnnc2C2(c3ccc(C)cc3)CC2)cc1 | 1150
11 | O=C(O)c1cn(CCc2ccccc2)nc1S(=O)(=O)N1CCSCC1 | 838
12 | Cc1cccc(N2CCN(c3ccc4cc(S(=O)(=O)N5CCCCC5C)ccc4n3)CC2)c1C (stereo not given) | 1330
13 | COc1cc(OC)cc(-c2nc(-c3cn(-c4ccc(F)cc4)nn3)no2)c1 | 809
14 | Cc1ccc(C)c(-c2cc3c(=O)n(Cc4nc(-c5ccc6c(c5)OCO6)no4)ncn3n2)c1 | 683
15 | CCN1C(=O)COc2ccc(-c3noc(-c4cc(OC)c(OC)c(OC)c4)n3)cc21 | 1060
16 | O=C(NCc1ccc(Cl)cc1)C1CCN(S(=O)(=O)c2cc(C(=O)N3CCCC3)cs2)CC1 | 916
17 | O=C(NCc1cccs1)c1ccnc(N2CCNC(c3ccccc3)C2)c1 (stereo not given) | 631
18 | O=C(Cn1nc2c3cc(-c4ccccc4)nn3ccn2c1=O)Nc1ccccc1Cl | 902
19 | O=c1n(Cc2ccccc2Cl)nc2ccc(S(=O)(=O)N3CCOCC3)cn12 | 824
20 | CNC(=O)C1CN(C(=O)c2ccccc2C(F)(F)F)CC12CCCC2 (stereo not given) | 609
21 | Cc1ccc(NC(=O)Cn2cccc2-c2nnc(C3CCC3)o2)cc1C | 985
22 | CCOc1ccc(-c2noc(Cn3c(=O)n(CC4CCCO4)c(=O)c4ccccc43)n2)cc1 (stereo not given) | 1050

Row | Structure (SMILES) | RP-LC retention time [s]
23 | Cc1ccc(-c2cn3ccn(-c4ccc(F)cc4)c(=O)c3n2)cc1C | 901
24 | CCOc1ccc(/C=C/C(=O)Nc2nc(-c3ccc4c(c3)NC(=O)C(C)O4)c(C)s2)cc1OC (stereo not given) | 980
25 | CCn1nccc1C(=O)N1CCCC1c1ccc(C)cc1 (stereo not given) | 890
26 | COCCOCc1nc(C2CCN(S(=O)(=O)c3cc(F)ccc3F)CC2)no1 | 806
27 | CC(C)Oc1ccccc1CN1CC(F)(F)C[C@H]1COc1ccncc1 | 752
28 | Cc1ccc(NC(=O)C2CCCN(c3nccc(C)n3)C2)c(Br)c1 (stereo not given) | 889
29 | CCCc1cc(N2CCN(C(=O)c3ccco3)CC2)nc2nnc(C)n12 | 868
30 | CCC(C)NC(=O)c1cn(-c2cc(-c3nc(C4CC4)no3)ccn2)cn1 (stereo not given) | 840
31 | Cc1csc(-c2csc(S(=O)(=O)N3CCN(c4cccc(C)c4C)CC3)c2)n1 | 1310
32 | CCNC(=O)C1CCN(c2nc3ccc(-c4ccc(OC)cc4)nc3s2)CC1 | 825
33 | CCN1c2cc(F)ccc2C(=O)NC12CCN(C(=O)c1ccc(OC)c(OC)c1)CC2 | 740
34 | CCOc1ccc2nc(C(=O)N3CCN(c4ccc(Cl)cc4)CC3)cn2n1 | 1000
35 | COCCCNC(=O)Cc1csc(SCc2ccc(Br)cc2)n1 | 830
36 | CC(C)c1ccc(S(=O)(=O)N2CCCC2c2nc(-c3ccccc3)no2)cc1 (stereo not given) | 1250
37 | Cc1cc(Cl)ccc1NC(=O)Cn1nc(C(=O)N2CCCCC2)c2ccccc21 | 778
38 | COc1ccc(S(=O)(=O)N2C[C@@H](F)C[C@H]2C(=O)N2CCOCC2)cc1 | 669
39 | CC1CCN(S(=O)(=O)c2ccc3c(c2)CCCC(=O)N3CC(=O)NC2CCCCC2)CC1 | 987
40 | CCOc1ccc(N2CCCCn3c2nc2c3c(=O)n(CC)c(=O)n2C)cc1 | 902
41 | COc1ccc(OCc2nc(CCN(C)C(=O)COc3ccccc3)no2)cc1 | 852
42 | CC(C)(C)C(=O)N1CCC(C(=O)N[C@@H]2CCCC[C@H]2NC(=O)c2ccc(F)cc2)CC1 | 698
43 | O=C(NC1CC1)[C@@H]1C[C@H](Oc2cccnc2)CN1C(=O)c1cnccn1 | 526
44 | COc1cccc(Cn2nc(-c3nc(-c4cccc(Cl)c4)no3)ccc2=O)c1 | 1180

Row | Structure (SMILES) | RP-LC retention time [s]
45 | O=C(NCCc1ccncc1)C1CC(=O)N(c2n[nH]c3cc(Br)ccc23)C1 (stereo not given) | 601
46 | Cc1noc(/C=C/c2ccc(F)cc2F)c1S(=O)(=O)N1CCC(C(=O)Nc2nccs2)CC1 | 1050
47 | CCC(=O)N1CCc2c([nH]c3ccccc23)C12C(=O)N(C)c1ccc(Br)cc12 (stereo not given) | 939
48 | Cc1ncn(CC(=O)Nc2ccccc2F)c(=O)c1C | 628
49 | CN1CCCN(C(c2ccccc2)c2ccc(Cl)cc2)CC1 (stereo not given) | 796
50 | Cc1oc(C2CCN(S(=O)(=O)c3ccccc3)CC2)nc1C(=O)N1CCOCC1 | 758
51 | O=C(CSc1nnc2ccc3ccccc3n12)c1ccc(Cl)cc1 | 875
52 | CCC(=O)Nc1ccc2c(c1)Sc1ncccc1C(=O)N2CC | 655
53 | O=C(c1cn(-c2cc(N3CCSCC3)ncn2)cn1)N1CCCc2ccccc21 | 780
54 | CC(C)Cn1cc2c3c(cccc31)CN(C(=O)Nc1ccc(F)cc1)CC2 | 1070
55 | O=C(CSc1nnc2c3cc(-c4ccc(F)cc4)nn3ccn12)Nc1ccccc1F | 881
56 | Fc1ccccc1-c1noc(-c2ncn3c2COC(c2ccccc2Cl)C3)n1 (stereo not given) | 1080
57 | COc1cc(CNC(=O)c2nc(CCS(=O)(=O)c3ccc(C)cc3)no2)cc(OC)c1OC | 825
58 | COc1ccc(NC(=O)CSc2nnc3c4cc(-c5ccc(Cl)cc5)nn4ccn23)c(OC)c1 | 951
59 | Cn1cc(-c2ccc3c(c2)CCN3C(=O)Cc2cccc(C(F)(F)F)c2)c2c(N)ncnc21 | 867
60 | O=C(Cn1c(=O)c2cc(-c3ccco3)nn2c2ncccc21)NC1CCCCC1 | 793
61 | C=CCn1c(=O)c2ccccc2n(Cc2nc(-c3ccc(OC)cc3)no2)c1=O | 1020
62 | CCOC(=O)c1ccccc1NC(=O)Cn1nc2c(Oc3ccccc3)nccn2c1=O | 1000
63 | COCc1noc([C@@H]2CC(F)(F)CN2C(=O)c2cn(C)cn2)n1 | 610
64 | O=C(c1cccs1)N1CCCC1c1ccc(F)cc1 (stereo not given) | 910
65 | Cc1cc(C)c(C)c(S(=O)(=O)NC2CCN(c3ccc(=O)n(CC4CC4)n3)CC2)c1C | 1040
